Source: US12336980B2, “Dosing regimen for a selective S1P1 receptor agonist” (Vanda Pharmaceuticals Inc., priority 2014, dated 2025)

Key:
healthy subjects [1] = experiment: 12-lead ECG, heart rate, PR interval and ECG abnormalities, cross-over up-titration study; type: in vivo, human; conditions: for mean maximum change from baseline in HR (12-lead ECG): Day 2, 2 h post-dose; for mean maximum change from baseline in HR (12-lead ECG) / decrease in HR vs. baseline (12-lead ECG): mean±SD; for decrease in HR vs. baseline (12-lead ECG): Day 3, 2 h after administration; for time for HR to return to baseline values post-dose (12-lead ECG): Day 2; for occurrence of HR <45 bpm, events / occurrence of HR <45 bpm, subjects: any time during the regimen, 12-lead ECG; for occurrence of PR interval >210 ms, events / occurrence of PR interval >210 ms, subjects: during the course of the study; for occurrence of HR <45 bpm, HR decrease >20 bpm, PR interval ≥200 ms or PR increase >20 ms, events / occurrence of HR <45 bpm, HR decrease >20 bpm, PR interval ≥200 ms or PR increase >20 ms, subjects / percentage of subjects with at least one event (HR <45 bpm, HR decrease >20 bpm, PR ≥200 ms, PR increase >20 ms): first 12 hours on Day 2
Method: (§1) In a single-center, double-blind, placebo-controlled, randomized, two-way cross-over study, 32 healthy subjects (15 males) received placebo on Day 1 followed by multiple-dose administration of either ponesimod or placebo (ratio 3:1). Ponesimod was administered alternately using regimen A (incremental dose increase from 2 to 20 mg) or B (10 mg for 7 days followed by a single-dose administration of 20 mg). Cardiodynamic (Holter and 12-lead ECG), pharmacokinetic, pharmacodynamic (total lymphocyte count), and safety variables were assessed.
(§2) The enrolled subjects came to the study center for each treatment period on Day −2 and participated in a run-in (all study procedures performed without study drug administration) on Day −1. On Day 1, subjects were randomized to one of the two possible sequences of the two up-titration regimens A and B (ratio 1:1). On Day 1, all subjects received placebo; the first study drug administration (or its matching placebo) occurred on Day 2. Regimen A consisted of the novel up-titration regimen: ponesimod was administered once daily (o.d.) orally at a dose of 2 mg on Day 2 and Day 3, 3 mg on Day 4 and Day 5, 4 mg on Day 6 and Day 7, 5 mg on Day 8, 6 mg on Day 9, 7 mg on Day 10, 8 mg on Day 11, 9 mg on Day 12, 10 mg on Day 13 and Day 14, and 20 mg on Day 15. The reference regimen (regimen B) was based on previous studies (Olsson T. et al., Oral ponesimod in relapsing-remitting multiple sclerosis: a randomised phase II trial. J Neurol Neurosurg Psychiatry. 2014; 85 (11): 1198-1208; and Vaclavkova A. et al., Oral ponesimod in patients with chronic plaque psoriasis: a randomised, double-blind, placebo-controlled phase 2 trial. Lancet. 2014; 384 (9959): 2036-2045) and consisted of an o.d. oral administration of ponesimod at a dose of 10 mg for 7 days (i.e., from Day 2 to Day 8) and 20 mg on Day 9. From Day 10 to Day 15 subjects received o.d. the matching placebo. In the placebo group (1:1 sex ratio), subjects received placebo from Day 1 to Day 15. All treatments were administered at the same time in the morning (fasted condition) with approximately 240 mL of water.
Cardiodynamic endpoints were assessed using Holter and 12-lead ECG. The 24-h Holter recordings were performed on Day -1, Day 1, Day 2, Day 9, Day 13, and Day 15. The 12-h Holter recordings were performed on the other days. In addition, Holter data were used to estimate the area under the effect curve (AUEC) for HR. 12-lead ECGs were performed from Day −1 to Day 16 at pre-dose and 1, 2, 3, 4, 5, 6, 8, 10, and 12 h after study drug administration. An additional 12-lead ECG recording was performed at EOFP and EOS. Heart rate nadir, Emax (maximum decrease of mean hourly HR from baseline, which was defined as the mean of the time-matched assessments measured on Day −1 and Day 1 pre-dose), and occurrence of values of interest (HR <45 bpm, HR decrease from baseline >20 bpm, and PR interval increase from baseline >20 ms), and AV-blocks (i.e., […]) were obtained with 12-lead ECG.
Cardiodynamic and pharmacodynamic data are expressed as mean±SD. Repeated measure one-way ANOVAs followed by Tukey's multiple-comparisons tests were used to perform inter-group (i.e., placebo vs. regimen A vs. regimen B) comparisons. Student's t-tests were employed to perform intra-group (baseline vs. treatment) comparisons. Differences were considered to be statistically significant at p <0.05. SAS® version 9.2 (SAS Institute, Cary, NC, USA) was used for the statistical analysis and descriptive statistics of clinical data.

healthy subjects [2] = experiment: Safety and tolerability, adverse events; type: in vivo, human
Method: as §1, §2
Safety and tolerability were evaluated by monitoring adverse events (AEs), vital signs measurements (supine blood pressure), pulmonary function tests (PFTs; i.e., FEV1 and FVC), clinical laboratory, physical, and neurological examinations. Recording of blood pressure was performed at the same time-points as 12-lead ECG.

[3] = Regimen A (N = 24), Day 2 to EOFP or EOS visit
[4] = Regimen B (N = 24), Day 2 to EOFP or EOS visit

## CCC/N=C1\S/C(=C\c2ccc(OC[C@H](O)CO)c(Cl)c2)C(=O)N1c1ccccc1C [ponesimod, (R)-5-[3-chloro-4-(2,3-dihydroxy-propoxy)-benz[Z]ylidene]-2-([Z]-propylimino)-3-o-tolyl-thiazolidin-4-one]
Healthy subjects [1]; 2 mg (regimen A)
  mean maximum change from baseline in HR (12-lead ECG): −9±5.3 bpm
Healthy subjects [1]; 2 mg second dose
  decrease in HR vs. baseline (12-lead ECG): −9±5.2 bpm
Healthy subjects [1]; 10 mg (regimen B)
  mean maximum change from baseline in HR (12-lead ECG): −13±6.2 bpm
Healthy subjects [1]; 10 mg second dose
  decrease in HR vs. baseline (12-lead ECG): −10±5.1 bpm
Healthy subjects [1]; Day 4 to last day of administration, ponesimod-treated subjects
  pre-dose HR values (range): 56-60 bpm
Healthy subjects [1]; [3]
  Atrial rhythm, number of events: 19
  Atrial rhythm, number of subjects: 4
  Atrial rhythm, percentage of subjects: 16.7 percentage
  Sinus bradycardia, number of events: 3
  Sinus bradycardia, number of subjects: 3
  Sinus bradycardia, percentage of subjects: 12.5 percentage
  Supraventricular extrasystoles, number of events: 15
  Supraventricular extrasystoles, number of subjects: 3
  Supraventricular extrasystoles, percentage of subjects: 12.5 percentage
  Ventricular extrasystoles, number of events: 1
  Ventricular extrasystoles, number of subjects: 1
  Ventricular extrasystoles, percentage of subjects: 4.2 percentage
Healthy subjects [1]; [4]
  AV-block 1st degree, number of events: 130
  AV-block 1st degree, number of subjects: 6
  AV-block 1st degree, percentage of subjects: 25.0 percentage
  AV-block 2nd degree Mobitz I, number of events: 1
  AV-block 2nd degree Mobitz I, number of subjects: 1
  AV-block 2nd degree Mobitz I, percentage of subjects: 4.2 percentage
  Atrial fibrillation, number of subjects: 1
  Atrial fibrillation, percentage of subjects: 4.2 percentage
  Atrial rhythm, number of events: 12
  Atrial rhythm, number of subjects: 2
  Atrial rhythm, percentage of subjects: 8.3 percentage
  QT prolonged, number of events: 142
  QT prolonged, number of subjects: 6
  QT prolonged, percentage of subjects: 25.0 percentage
  Short PQ, number of events: 147
  Short PQ, number of subjects: 6
  Short PQ, percentage of subjects: 25.0 percentage
  Sinus arrhythmia, number of events: 98
  Sinus arrhythmia, number of subjects: 12
  Sinus arrhythmia, percentage of subjects: 50.0 percentage
  Sinus bradycardia, number of events: 33
  Sinus bradycardia, number of subjects: 3
  Sinus bradycardia, percentage of subjects: 12.5 percentage
  Supraventricular extrasystoles, number of events: 29
  Supraventricular extrasystoles, number of subjects: 7
  Supraventricular extrasystoles, percentage of subjects: 29.2 percentage
  Ventricular extrasystoles, number of events: 3
  Ventricular extrasystoles, number of subjects: 3
  Ventricular extrasystoles, percentage of subjects: 12.5 percentage
Healthy subjects [1]; Regimen B (N = 24), Day 2 to EOFP or EOS visit, *Serious adverse event
  Atrial fibrillation, number of events: 1
Healthy subjects [1]; regimen A
  time for HR to return to baseline values post-dose (12-lead ECG): ≤ 3 h
  occurrence of HR <45 bpm, events: 20 events
  occurrence of HR <45 bpm, subjects: 3 subjects
  occurrence of PR interval >210 ms, events: 79 events
  occurrence of PR interval >210 ms, subjects: 6 subjects
  occurrence of HR <45 bpm, HR decrease >20 bpm, PR interval ≥200 ms or PR increase >20 ms, events: 14 events
  occurrence of HR <45 bpm, HR decrease >20 bpm, PR interval ≥200 ms or PR increase >20 ms, subjects: 6 subjects
  percentage of subjects with at least one event (HR <45 bpm, HR decrease >20 bpm, PR ≥200 ms, PR increase >20 ms): 25%
Healthy subjects [1]; regimen B
  time for HR to return to baseline values post-dose (12-lead ECG): ≤ 4 h
  occurrence of HR <45 bpm, events: 58 events
  occurrence of HR <45 bpm, subjects: 4 subjects
  occurrence of PR interval >210 ms, events: 143 events
  occurrence of PR interval >210 ms, subjects: 8 subjects
  occurrence of HR <45 bpm, HR decrease >20 bpm, PR interval ≥200 ms or PR increase >20 ms, events: 43 events
  occurrence of HR <45 bpm, HR decrease >20 bpm, PR interval ≥200 ms or PR increase >20 ms, subjects: 12 subjects
  percentage of subjects with at least one event (HR <45 bpm, HR decrease >20 bpm, PR ≥200 ms, PR increase >20 ms): 50%
Healthy subjects [2]; 20 mg ponesimod (regimen B)
  time of serious AE of atrial fibrillation after administration: 6 h
  time to resolution of serious AE of atrial fibrillation without sequelae: ≤ 24 h
Healthy subjects [2]; after 20 mg ponesimod (regimen B)
  serious AE: One serious AE of atrial fibrillation
Healthy subjects [2]; all treatment groups
  intensity of AEs: mild to moderate
Healthy subjects [2]; on ponesimod, also among the most common in the placebo group
  most commonly reported AEs: headache, dizziness, and procedural site reaction
Healthy subjects [2]; regimen B vs regimen A
  AEs of special interest related to cardiac function (sinus bradycardia and palpitations): reported more frequently during regimen B compared to regimen A
